Test system: MV-4-11 cells
Assay: Gene expression microarray analysis (Affymetrix PrimeView) and GSEA
Type: cell-based, human
Design: RFU PODN (11730768_x_at) / Fold change /veh PODN (11730768_x_at) / RFU LINC00158 (11744669_a_at) / Fold change /veh LINC00158 (11744669_a_at) / RFU DUSP10 (11751237_a_at) / Fold change /veh DUSP10 (11751237_a_at) / RFU ID3 (11757404_x_at) / Fold change /veh ID3 (11757404_x_at) / RFU PLEKHG5 (11737974_s_at) / Fold change /veh PLEKHG5 (11737974_s_at) / RFU LRRC4B (11730491_at) / Fold change /veh LRRC4B (11730491_at) / RFU GIMAP4 (11747438_a_at) / Fold change /veh GIMAP4 (11747438_a_at) / RFU KRT8 (11758183_x_at) / Fold change /veh KRT8 (11758183_x_at) / RFU CNN1 (11734310_a_at) / Fold change /veh CNN1 (11734310_a_at) / RFU VPS37D (11726825_at) / Fold change /veh VPS37D (11726825_at) / RFU C10orf10 (11716522_x_at) / Fold change /veh C10orf10 (11716522_x_at) / RFU KIR2DL2 /// KIR2DL4 /// KIR2DL5A /// KIR2DL5B /// KIR2DS1 /// KIR2DS2 /// KIR2DS3 /// KIR2DS4 /// KIR3DL3 /// KIR3DL3 /// KIR3DS1 (11738374_at) / Fold change /veh KIR2DL2 /// KIR2DL4 /// KIR2DL5A /// KIR2DL5B /// KIR2DS1 /// KIR2DS2 /// KIR2DS3 /// KIR2DS4 /// KIR3DL3 /// KIR3DL3 /// KIR3DS1 (11738374_at) / RFU C1QL1 (11718748_at) / Fold change /veh C1QL1 (11718748_at) / RFU TMPRSS4 (11747572_a_at) / Fold change /veh TMPRSS4 (11747572_a_at) / RFU HAMP (11756126_x_at) / Fold change /veh HAMP (11756126_x_at) / RFU RNFT2 (11725882_a_at) / Fold change /veh RNFT2 (11725882_a_at) / RFU NR4A2 (11747474_a_at) / Fold change /veh NR4A2 (11747474_a_at) / RFU ABCC12 (11746883_a_at) / Fold change /veh ABCC12 (11746883_a_at) / RFU TMEM136 (11760407_x_at) / Fold change /veh TMEM136 (11760407_x_at) / RFU CLDN22 /// WWC2 (11732394_at) / Fold change /veh CLDN22 /// WWC2 (11732394_at) / RFU HLA-DPB1 (11760878_x_at) / Fold change /veh HLA-DPB1 (11760878_x_at) / RFU SPINT1 (11716480_a_at) / Fold change /veh SPINT1 (11716480_a_at) / RFU GAP43 (11754022_s_at) / Fold change /veh GAP43 (11754022_s_at) / RFU A4GNT (11735810_at) / Fold change /veh A4GNT (11735810_at) / RFU PRB3 (11715151_x_at) / Fold change /veh PRB3 (11715151_x_at) / RFU TUBB4B (11761932_at) / Fold change /veh TUBB4B (11761932_at) / RFU CAPN14 (11732068_a_at) / Fold change /veh CAPN14 (11732068_a_at) / RFU TMCC2 (11721928_a_at) / Fold change /veh TMCC2 (11721928_a_at) / RFU IRGQ (11745062_a_at) / Fold change /veh IRGQ (11745062_a_at) / RFU FAM174B (11720279_a_at) / Fold change /veh FAM174B (11720279_a_at) / RFU TMPRSS4 (11748680_a_at) / Fold change /veh TMPRSS4 (11748680_a_at) / RFU FAM212B (11763350_a_at) / Fold change /veh FAM212B (11763350_a_at) / RFU PLEKHG5 (11743358_a_at) / Fold change /veh PLEKHG5 (11743358_a_at) / RFU ZSCAN30 (11745921_a_at) / Fold change /veh ZSCAN30 (11745921_a_at) / RFU CMKLR1 (11741424_a_at) / Fold change /veh CMKLR1 (11741424_a_at) / RFU LOC101060620 /// MAPK8IP1 (11723275_at) / Fold change /veh LOC101060620 /// MAPK8IP1 (11723275_at) / RFU SPTSSB (11747773_x_at) / Fold change /veh SPTSSB (11747773_x_at) / RFU PRSS12 (11739890_at) / Fold change /veh PRSS12 (11739890_at) / RFU BIN1 (11741810_x_at) / Fold change /veh BIN1 (11741810_x_at) / RFU WNT11 (11732464_a_at) / Fold change /veh WNT11 (11732464_a_at) / RFU C10orf10 (11716521_a_at) / Fold change /veh C10orf10 (11716521_a_at) / RFU C5orf56 (11738089_at) / Fold change /veh C5orf56 (11738089_at) / RFU CYB561 (11721691_x_at) / Fold change /veh CYB561 (11721691_x_at) / RFU ANKRD19P (11752326_a_at) / Fold change /veh ANKRD19P (11752326_a_at) / RFU OR2T12 /// OR2T33 /// OR2T8 (11738714_s_at) / Fold change /veh OR2T12 /// OR2T33 /// OR2T8 (11738714_s_at) / RFU VCAN (11748164_a_at) / Fold change /veh VCAN (11748164_a_at) / RFU JSRP1 (11732532_at) / Fold change /veh JSRP1 (11732532_at) / RFU KRTAP10-11 (11738290_x_at) / Fold change /veh KRTAP10-11 (11738290_x_at) / RFU MYO3A (11730013_a_at) / Fold change /veh MYO3A (11730013_a_at) / RFU EBF3 (11725865_a_at) / Fold change /veh EBF3 (11725865_a_at) / RFU CAMK2N1 (11719241_x_at) / Fold change /veh CAMK2N1 (11719241_x_at) / RFU C5orf56 (11738088_a_at) / Fold change /veh C5orf56 (11738088_a_at) / RFU OLFML3 (11715873_a_at) / Fold change /veh OLFML3 (11715873_a_at) / RFU LOC100653217 /// NTM (11731650_a_at) / Fold change /veh LOC100653217 /// NTM (11731650_a_at) / RFU MAPK11 (11762145_a_at) / Fold change /veh MAPK11 (11762145_a_at) / RFU FIZ1 (11724087_x_at) / Fold change /veh FIZ1 (11724087_x_at) / RFU OASL (11726364_x_at) / Fold change /veh OASL (11726364_x_at) / RFU SOX15 (11748057_x_at) / Fold change /veh SOX15 (11748057_x_at) / RFU CD79A (11719716_a_at) / Fold change /veh CD79A (11719716_a_at) / RFU HIST1H1D (11736915_at) / Fold change /veh HIST1H1D (11736915_at) / RFU CASKIN2 (11723855_a_at) / Fold change /veh CASKIN2 (11723855_a_at) / RFU LOC730098 (11760151_x_at) / Fold change /veh LOC730098 (11760151_x_at) / RFU OR4N2 (11742367_at) / Fold change /veh OR4N2 (11742367_at) / RFU PRRT2 (11749266_a_at) / Fold change /veh PRRT2 (11749266_a_at) / RFU SNX32 (11753110_a_at) / Fold change /veh SNX32 (11753110_a_at) / RFU CDHR5 (11726645_a_at) / Fold change /veh CDHR5 (11726645_a_at) / RFU RCAN1 (11760418_a_at) / Fold change /veh RCAN1 (11760418_a_at) / RFU FAM167A (11723789_a_at) / Fold change /veh FAM167A (11723789_a_at) / RFU FAM26E (11764081_at) / Fold change /veh FAM26E (11764081_at) / RFU ISYNA1 (11749810_s_at) / Fold change /veh ISYNA1 (11749810_s_at) / RFU ACY1 (11761880_at) / Fold change /veh ACY1 (11761880_at) / RFU 11764098_at / Fold change /veh 11764098_at / RFU SAMD14 (11745864_x_at) / Fold change /veh SAMD14 (11745864_x_at) / RFU NPB (11741838_a_at) / Fold change /veh NPB (11741838_a_at) / RFU TMPRSS6 (11731388_a_at) / Fold change /veh TMPRSS6 (11731388_a_at) / RFU KRTAP10-2 (11738614_at) / Fold change /veh KRTAP10-2 (11738614_at) / RFU ARHGAP8 /// PRR5-ARHGAP8 (11727945_x_at) / Fold change /veh ARHGAP8 /// PRR5-ARHGAP8 (11727945_x_at) / RFU KRTAP5-7 /// NADSYN1 (11734609_at) / Fold change /veh KRTAP5-7 /// NADSYN1 (11734609_at) / RFU RASL12 (11751679_a_at) / Fold change /veh RASL12 (11751679_a_at) / RFU CDKN2B (11736163_a_at) / Fold change /veh CDKN2B (11736163_a_at) / RFU PRF1 (11729649_at) / Fold change /veh PRF1 (11729649_at) / RFU, ZNF638 /// ZNF638-IT1 / Fold change vs veh, ZNF638 /// ZNF638-IT1 / RFU, PANK3 / Fold change vs veh, PANK3 / RFU, SH3YL1 / Fold change vs veh, SH3YL1 / RFU, ZEB2 / Fold change vs veh, ZEB2 / RFU, NRIP1 / Fold change vs veh, NRIP1 / RFU, PTTG1IP / Fold change vs veh, PTTG1IP / RFU, CAPN2 / Fold change vs veh, CAPN2 / RFU, MED14 / Fold change vs veh, MED14 / RFU, SNORA58 / Fold change vs veh, SNORA58 / RFU, C1orf63 / Fold change vs veh, C1orf63 / RFU, LRRFIP1 / Fold change vs veh, LRRFIP1 / RFU, NDUFAF7 / Fold change vs veh, NDUFAF7 / RFU, SLC12A2 / Fold change vs veh, SLC12A2 / RFU, IBTK / Fold change vs veh, IBTK / RFU, ESF1 / Fold change vs veh, ESF1 / Fold change vs veh, TMEM50B / RFU, TAOK1 / Fold change vs veh, TAOK1 / RFU, ACBD3 / Fold change vs veh, ACBD3 / RFU, TMA16 / Fold change vs veh, TMA16 / RFU, RWDD3 / Fold change vs veh, RWDD3 / RFU, BCAT1 / Fold change vs veh, BCAT1 / RFU, EDEM3 / Fold change vs veh, EDEM3 / RFU, TMEM33 / Fold change vs veh, TMEM33 / RFU, WDR75 / Fold change vs veh, WDR75 / RFU, AHCTF1 / Fold change vs veh, AHCTF1 / RFU, TFRC / Fold change vs veh, TFRC / RFU, ZDHHC17 / Fold change vs veh, ZDHHC17 / RFU, NOM1 / Fold change vs veh, NOM1 / RFU, ARL8B / Fold change vs veh, ARL8B / RFU, ZBTB11 / Fold change vs veh, ZBTB11 / RFU, TAMM41 / Fold change vs veh, TAMM41 / RFU, KIAA1704 /// LOC100996395 / Fold change vs veh, KIAA1704 /// LOC100996395 / RFU, ING1 / Fold change vs veh, ING1 / RFU, TRMT61B / Fold change vs veh, TRMT61B / RFU, FUBP3 / Fold change vs veh, FUBP3 / RFU, TP53 / Fold change vs veh, TP53 / RFU, TNKS2 / Fold change vs veh, TNKS2 / RFU, ZFP14 / Fold change vs veh, ZFP14 / RFU, ACTR2 / Fold change vs veh, ACTR2 / RFU, PPP3R1 / Fold change vs veh, PPP3R1 / RFU, PIK3R1 / Fold change vs veh, PIK3R1 / RFU, HNRNPA1 / Fold change vs veh, HNRNPA1 / RFU, RNF170 / Fold change vs veh, RNF170 / RFU, ZNF28 / Fold change vs veh, ZNF28 / RFU, RNGTT / Fold change vs veh, RNGTT / RFU, OGT / Fold change vs veh, OGT / RFU, BRD1 / Fold change vs veh, BRD1 / RFU, MARS / Fold change vs veh, MARS / RFU, ZNF655 / Fold change vs veh, ZNF655 / RFU, FAHD1 / Fold change vs veh, FAHD1 / RFU, BDP1 / Fold change vs veh, BDP1 / RFU, LRRCC1 / Fold change vs veh, LRRCC1 / RFU, ARID1A / Fold change vs veh, ARID1A / RFU, ZNF146 / Fold change vs veh, ZNF146 / RFU, ZNF330 / Fold change vs veh, ZNF330 / RFU, GPN3 / Fold change vs veh, GPN3 / RFU, C9orf123 / Fold change vs veh, C9orf123 / RFU, N4BP2L2 / Fold change vs veh, N4BP2L2 / RFU, ARFIP1 / Fold change vs veh, ARFIP1 / RFU, FAM179B / Fold change vs veh, FAM179B / RFU, BCL10 / Fold change vs veh, BCL10 / RFU, UHRF1BP1L / Fold change vs veh, UHRF1BP1L / RFU, BET1 / Fold change vs veh, BET1 / RFU, CNOT2 / Fold change vs veh, CNOT2 / RFU, ZNF268 / Fold change vs veh, ZNF268 / Fold change vs veh, ZNF507 / RFU, DGCR2 / Fold change vs veh, DGCR2 / RFU, WDSUB1 / Fold change vs veh, WDSUB1 / Fold change vs veh, HSP90B1 /// MIR3652 / RFU, ADSS / Fold change vs veh, ADSS / RFU, GK / Fold change vs veh, GK / RFU, ZNF148 / Fold change vs veh, ZNF148 / RFU, TAF9 / Fold change vs veh, TAF9 / RFU, SLC1A5 / Fold change vs veh, SLC1A5 / RFU, SLMO2 / Fold change vs veh, SLMO2 / RFU, ABCC4 / Fold change vs veh, ABCC4 / RFU, LOC101060439 /// RAP1B / Fold change vs veh, LOC101060439 /// RAP1B / RFU, RFX7 / Fold change vs veh, RFX7 / RFU, GTPBP10 / Fold change vs veh, GTPBP10 / RFU, CNEP1R1 / Fold change vs veh, CNEP1R1 / RFU, BIVM-ERCC5 /// ERCC5 / Fold change vs veh, BIVM-ERCC5 /// ERCC5 / RFU, ILF3 / Fold change vs veh, ILF3 / RFU 11762660_at / Fold change /veh 11762660_at / RFU VCAN (11757783_s_at) / Fold change /veh VCAN (11757783_s_at) / RFU DDX43 (11728927_at) / Fold change /veh DDX43 (11728927_at) / RFU KRT8 (11758188_x_at) / Fold change /veh KRT8 (11758188_x_at) / RFU NKD1 (11759106_at) / Fold change /veh NKD1 (11759106_at) / RFU SRD5A1 (11742802_a_at) / Fold change /veh SRD5A1 (11742802_a_at) / RFU TPSAB1 /// TPSB2 (11721975_s_at) / Fold change /veh TPSAB1 /// TPSB2 (11721975_s_at) / RFU GSTM3 (11746129_a_at) / Fold change /veh GSTM3 (11746129_a_at) / RFU IL23R (11737362_x_at) / Fold change /veh IL23R (11737362_x_at) / RFU TMEM51 (11727254_a_at) / Fold change /veh TMEM51 (11727254_a_at) / RFU PIWIL2 (11732686_x_at) / Fold change /veh PIWIL2 (11732686_x_at) / RFU ORM1 (11744905_x_at) / Fold change /veh ORM1 (11744905_x_at) / RFU CCDC152 (11743942_at) / Fold change /veh CCDC152 (11743942_at) / RFU ECM1 (11717891_a_at) / Fold change /veh ECM1 (11717891_a_at) / RFU IL23R (11748794_a_at) / Fold change /veh IL23R (11748794_a_at) / RFU TNFAIP8L3 (11732012_x_at) / Fold change /veh TNFAIP8L3 (11732012_x_at) / RFU MBOAT4 (11741988_at) / Fold change /veh MBOAT4 (11741988_at) / RFU 11764193_at / Fold change /veh 11764193_at / RFU TMEM53 (11763286_at) / Fold change /veh TMEM53 (11763286_at) / RFU MAGEB2 (11727129_at) / Fold change /veh MAGEB2 (11727129_at) / RFU TMEM200A (11744735_a_at) / Fold change /veh TMEM200A (11744735_a_at) / RFU CCDC152 (11751479_a_at) / Fold change /veh CCDC152 (11751479_a_at) / RFU FAM211A (11726209_a_at) / Fold change /veh FAM211A (11726209_a_at) / RFU RGS16 (11746705_a_at) / Fold change /veh RGS16 (11746705_a_at) / RFU VCAN (11755009_s_at) / Fold change /veh VCAN (11755009_s_at) / RFU RHOB (11743442_s_at) / Fold change /veh RHOB (11743442_s_at) / RFU RGS16 (11720943_a_at) / Fold change /veh RGS16 (11720943_a_at) / RFU RGS16 (11720944_at) / Fold change /veh RGS16 (11720944_at) / RFU, VPS4B / Fold change vs veh, VPS4B / RFU, CREB1 / Fold change vs veh, CREB1 / RFU, DNAJC13 / Fold change vs veh, DNAJC13 / RFU, GNAQ / Fold change vs veh, GNAQ / RFU, CDK5R1 / Fold change vs veh, CDK5R1 / RFU, ZRANB3 / Fold change vs veh, ZRANB3 / RFU, CUL4A / Fold change vs veh, CUL4A / RFU, CCNY / Fold change vs veh, CCNY / RFU, UFL1 / Fold change vs veh, UFL1 / RFU, COG3 / Fold change vs veh, COG3 / RFU, DIAPH2 / Fold change vs veh, DIAPH2 / RFU, SKA2 / Fold change vs veh, SKA2 / RFU, AFF3 / Fold change vs veh, AFF3 / RFU, LMF1 / Fold change vs veh, LMF1 / RFU, IPO11 / Fold change vs veh, IPO11 / RFU, DFFB / Fold change vs veh, DFFB / RFU, FOXP1 / Fold change vs veh, FOXP1 / RFU, CARD8 / Fold change vs veh, CARD8 / RFU, STRN3 / Fold change vs veh, STRN3 / RFU, ADK / Fold change vs veh, ADK / RFU, RASSF2 / Fold change vs veh, RASSF2 / RFU, WIPF1 / Fold change vs veh, WIPF1 / RFU, LARP1B / Fold change vs veh, LARP1B / RFU, RASA1 / Fold change vs veh, RASA1 / RFU, RB1 / Fold change vs veh, RB1 / RFU, PPFIA1 / Fold change vs veh, PPFIA1 / RFU, MAT2A / Fold change vs veh, MAT2A / RFU, CCT5 / Fold change vs veh, CCT5 / RFU, WDR92 / Fold change vs veh, WDR92 / RFU, CUX1 / Fold change vs veh, CUX1 / RFU, TTC7A / Fold change vs veh, TTC7A / RFU, TMEM135 / Fold change vs veh, TMEM135 / RFU, DEPTOR / Fold change vs veh, DEPTOR / RFU, CPM / Fold change vs veh, CPM / RFU, DNAJB6 / Fold change vs veh, DNAJB6 / RFU, CACNA2D3 / Fold change vs veh, CACNA2D3 / RFU, DTX4 / Fold change vs veh, DTX4 / RFU, TFCP2 / Fold change vs veh, TFCP2 / RFU, GMCL1 /// GMCL1P1 / Fold change vs veh, GMCL1 /// GMCL1P1 / RFU, AEBP2 / Fold change vs veh, AEBP2 / RFU, SNHG1 /// SNORD22 /// SNORD25 /// SNORD26 /// SNORD27 /// SNORD28 /// SNORD29 /// SNORD31 / Fold change vs veh, SNHG1 /// SNORD22 /// SNORD25 /// SNORD26 /// SNORD27 /// SNORD28 /// SNORD29 /// SNORD31 / Fold change (Aza/veh), C12orf56 (ProbeSet 11735607_a_at) / Fold change (ACY-1035/veh), C12orf56 (ProbeSet 11735607_a_at) / Fold change (Aza/veh), FGFR1OP (ProbeSet 11751329_s_at) / Fold change (ACY-1035/veh), FGFR1OP (ProbeSet 11751329_s_at) / Fold change (Aza/veh), VPS36 (ProbeSet 11739960_a_at) / Fold change (ACY-1035/veh), VPS36 (ProbeSet 11739960_a_at) / RFU SYPL1 (11715823_x_at) / Fold change /veh SYPL1 (11715823_x_at) / RFU IGFBP7 (11715501_s_at) / Fold change /veh IGFBP7 (11715501_s_at) / RFU REEP3 (11722064_at) / Fold change /veh REEP3 (11722064_at) / RFU IGLL1 (11728026_x_at) / Fold change /veh IGLL1 (11728026_x_at): dose or concentration left out as unconfirmed
Details: ProbeSet 11747888_a_at; LIST D

## Nc1ncn([C@@H]2O[C@H](CO)[C@@H](O)[C@H]2O)c(=O)n1 [azacitidine]
  RFU, SH3YL1: 53.76 RFU
